Assay results published in ChEMBL document CHEMBL1150655, “Tupuseleiamides and basiliskamides, new acyldipeptides and antifungal polyketides produced in culture by a Bacillus laterosporus isolate obtained from a tropical marine habitat” (J Nat Prod, 2002).
Values after ≈ are worked out from the molar mass of the structure shown.

Experiments:
Candida albicans = assay: Antimicrobial activity against Candida albicans by standard agar dilution method; type: functional
Aspergillus fumigatus = assay: Antimicrobial activity against Aspergillus fumigatus by standard agar dilution method; type: functional
[1] = Cytotoxicity against human diploid fibroblast cells assessed as cytopathic effect at 12.5 ug/ml; type: cell-based
[2] = Cytotoxicity against human diploid fibroblast cells at 100 ug/ml; type: cell-based

| SMILES | MIC (Candida albicans) [µg/mL] | MIC (Aspergillus fumigatus) [µg/mL] | Activity [1] | Activity [2] |
| --- | --- | --- | --- | --- |
| CC[C@@H](C)[C@H](O)[C@H](C)[C@@H](C/C=C/C=C\C(N)=O)OC(=O)/C=C/c1ccccc1 [BASILISKAMIDE B] | 3.1 (≈ 8.04 µM) | 5 (≈ 13 µM) |  |  |
| C[C@@H]1[C@H](O)[C@@H](C)/C=C/C=C/C=C/C=C/C=C/C=C/C=C/[C@H](O[C@@H]2O[C@H](C)[C@@H](O)[C@H](N)[C@@H]2O)C[C@@H]2O[C@](O)(C[C@@H](O)C[C@@H](O)[C@H](O)CC[C@@H](O)C[C@@H](O)CC(=O)O[C@H]1C)C[C@H](O)[C@H]2C(=O)O [AMPHOTERICIN B] |  |  | Toxic | Toxic |
| CC[C@@H](C)[C@H](OC(=O)/C=C/c1ccccc1)[C@H](C)[C@H](O)C/C=C/C=C\C(N)=O [BASILISKAMIDE A] | 1 (≈ 2.59 µM) | 2.5 (≈ 6.49 µM) |  |  |
